The values below come from patent US9593149B2, “Amylin and calcitonin receptor agonist” (Novo Nordisk A/S, priority 2014, dated 2017).

As a reminder, the solubility is the concentration that dissolves in the medium under given conditions. Higher therefore signals a readily soluble substance.

This series in a line: Assay (IV) determination of solubility. It counts as physicochemical. How it is done:
Assay (IV)—Determination of Solubility
The mimylin peptide was dissolved in water at ˜500 nmol/ml and mixed 1:1 with a series of buffers (100 mM glycylglycine pH 3.0, 100 mM glycylglycine pH 4.0, 100 mM glycylglycine pH 5.0, 100 mM bistrispropane pH 6.0, 100 mM bistrispropane pH 6.5, 100 mM bistrispropane pH 7.0, 100 mM bistrispropane pH 7.5, 100 mM bistrispropane pH 8.0).

≈ marks a conversion by molar mass, not a printed value. Numbered stars: 1 amine (or outer) side, 2 acyl side, 3 side chain; on linkers, the order of the positions; unused ones are H or OH. Peptide text beside a SMILES is read from it. * marks the point of attachment. C20 diacid = O=C(O)CCCCCCCCCCCCCCCCCCC(=O)*; C18 diacid = O=C(O)CCCCCCCCCCCCCCCCC(=O)*; γGlu = O=C(O)[C@H](CCC(=O)[*:2])N[*:1]; Palmitoyl = CCCCCCCCCCCCCCCC(=O)*; AEEA = NCCOCCOCC(=O)O

For `CC(C)C[C@H](NC(=O)CNC(=O)[C@H](CO)NC(=O)[C@H](C)NC(=O)CC[C@H](NC(=O)CCCCCCCCCCCCCCCCCCC(=O)O)C(=O)O)C(=O)N[C@@H](CO)C(=O)N[C@H](C(=O)N[C@@H](C)C(=O)N[C@@H](C)C(=O)N[C@@H](CC(C)C)C(=O)NCC(=O)N[C@@H](CCCNC(=N)N)C(=O)N[C@@H](CC(C)C)C(=O)N[C@@H](CO)C(=O)N[C@@H](CCC(N)=O)C(=O)N[C@@H](CCC(=O)O)C(=O)N[C@@H](CC(C)C)C(=O)N[C@@H](Cc1cnc[nH]1)C(=O)N[C@@H](CCC(=O)O)C(=O)N[C@@H](CC(C)C)C(=O)N[C@@H](CCC(N)=O)C(=O)N[C@H](C(=O)N[C@@H](Cc1ccc(O)cc1)C(=O)N1CCC[C@H]1C(=O)N[C@@H](Cc1cnc[nH]1)C(=O)N[C@H](C(=O)N[C@@H](CCC(=O)O)C(=O)N[C@H](C(=O)NCC(=O)N[C@@H](CO)C(=O)NCC(=O)N[C@H](C(=O)N[C@@H](Cc1ccc(O)cc1)C(N)=O)[C@@H](C)O)[C@@H](C)O)[C@@H](C)O)[C@@H](C)O)[C@@H](C)O` [compound 117, [N-terminal(C20 diacid-gGlu), des1, 4G, 15Q, 21Q, 23Y, 25H, 30S, 31G, 32T, 33Y]mimylin] ({C20 diacid-γGlu}-ASGLSTAALGRLSQELHELQTYPHTETGSGTY-NH2), the Solubility entry is, setting by setting: (pH 3.0) “≧200 μM”; (pH 4.0) “≧200 μM”; (pH 6.0) “≧200 μM”; (pH 6.5) “≧200 μM”; (pH 7.0) “≧200 μM”; (pH 7.5) “≧200 μM”. The Solubility result (pH 8.0) is “≧200 μM”. The compound further came in with a solubility at 18 h (pH 5.0) of 38 µM (≈ 146 µg/mL).

Regarding `CC[C@H](C)[C@H](NC(=O)[C@H](C)NC(=O)[C@@H](NC(=O)[C@H](CO)NC(=O)[C@H](CC(C)C)NC(=O)[C@H](CCC(=O)O)NC(=O)[C@H](CO)NC(=O)[C@H](C)NC(=O)[C@H](CCC(=O)O)NC(=O)CCCCCCCCCCCCCCCCC(=O)O)[C@@H](C)O)C(=O)N[C@@H](CC(C)C)C(=O)NCC(=O)N[C@@H](CCCNC(=N)N)C(=O)N[C@@H](CC(C)C)C(=O)N[C@@H](CO)C(=O)N[C@@H](C)C(=O)N[C@@H](CCC(=O)O)C(=O)N[C@@H](CC(C)C)C(=O)N[C@@H](Cc1cnc[nH]1)C(=O)N[C@@H](CCC(=O)O)C(=O)N[C@@H](CC(C)C)C(=O)N[C@@H](C)C(=O)N[C@H](C(=O)N[C@@H](CC(C)C)C(=O)N1CCC[C@H]1C(=O)N[C@@H](CCCNC(=N)N)C(=O)N[C@H](C(=O)N[C@@H](CCC(=O)O)C(=O)N[C@H](C(=O)NCC(=O)N1CCC[C@H]1C(=O)N[C@@H](CCC(=O)O)C(=O)N[C@@H](CO)C(=O)N1CCC[C@H]1C(N)=O)[C@@H](C)O)[C@@H](C)O)[C@@H](C)O` [compound 10, [N-terminal(C18 diacid), 9I]mimylin] ({C18 diacid}-EASELSTAILGRLSAELHELATLPRTETGPESP-NH2), the Solubility entry is listed as “≧200 μM” (pH 3.0); “≧200 μM” (pH 5.0); “≧200 μM” (pH 6.0); “≧200 μM” (pH 6.5); “≧200 μM” (pH 7.0); “≧200 μM” (pH 7.5). Further, under “pH 8.0”, the Solubility result is “≧200 μM”. The compound further displayed a solubility at 18 h (pH 4.0) of 182 µM (≈ 687 µg/mL).

Turning to `CCCCCCCCCCCCCCCC(=O)N[C@@H](CCC(=O)O)C(=O)N[C@@H](C)C(=O)N[C@@H](CO)C(=O)N[C@@H](CCC(=O)O)C(=O)N[C@@H](CC(C)C)C(=O)N[C@@H](CO)C(=O)N[C@H](C(=O)N[C@@H](C)C(=O)N[C@@H](C)C(=O)N[C@@H](CC(C)C)C(=O)NCC(=O)N[C@@H](CCCNC(=N)N)C(=O)N[C@@H](CC(C)C)C(=O)N[C@@H](CO)C(=O)N[C@@H](C)C(=O)N[C@@H](CCC(=O)O)C(=O)N[C@@H](CC(C)C)C(=O)N[C@@H](Cc1cnc[nH]1)C(=O)N[C@@H](CCC(=O)O)C(=O)N[C@@H](CC(C)C)C(=O)N[C@@H](C)C(=O)N[C@H](C(=O)N[C@@H](CC(C)C)C(=O)N1CCC[C@H]1C(=O)N[C@@H](CCCNC(=N)N)C(=O)N[C@H](C(=O)N[C@@H](CCC(=O)O)C(=O)N[C@H](C(=O)NCC(=O)N1CCC[C@H]1C(=O)N[C@@H](CCC(=O)O)C(=O)N[C@@H](CO)C(=O)N1CCC[C@H]1C(N)=O)[C@@H](C)O)[C@@H](C)O)[C@@H](C)O)[C@@H](C)O` [compound 7, [N-terminal(C16)]mimylin] (Palmitoyl-EASELSTAALGRLSAELHELATLPRTETGPESP-NH2), the Solubility entry is, setting by setting: (pH 3.0) “≧200 μM”; (pH 4.0) “≧200 μM”; (pH 5.0) “≧200 μM”; (pH 6.0) “≧200 μM”; (pH 6.5) “≧200 μM”; (pH 7.0) “≧200 μM”. Moreover, the Solubility entry is recorded as “≧200 μM” (pH 7.5) and “≧200 μM” (pH 8.0).

`CC(C)C[C@H](NC(=O)[C@H](CCCNC(=N)N)NC(=O)CNC(=O)[C@H](CC(C)C)NC(=O)[C@@H](NC(=O)[C@H](C)NC(=O)[C@@H](NC(=O)[C@H](CO)NC(=O)[C@H](CC(C)C)NC(=O)[C@H](CCC(=O)O)NC(=O)[C@H](CO)NC(=O)[C@H](C)NC(=O)CC[C@H](NC(=O)CCCCCCCCCCCCCCCCCCC(=O)O)C(=O)O)[C@@H](C)O)[C@@H](C)O)C(=O)N[C@@H](CO)C(=O)N[C@@H](C)C(=O)N[C@@H](CCC(=O)O)C(=O)N[C@@H](CC(C)C)C(=O)N[C@@H](Cc1cnc[nH]1)C(=O)N[C@@H](CCC(=O)O)C(=O)N[C@@H](CC(C)C)C(=O)N[C@@H](CO)C(=O)N[C@H](C(=O)N[C@@H](Cc1ccc(O)cc1)C(=O)N1CCC[C@H]1C(=O)N[C@@H](CCCNC(=N)N)C(=O)N[C@H](C(=O)N[C@@H](CCC(=O)O)C(=O)N[C@H](C(=O)NCC(=O)N[C@@H](CO)C(=O)NCC(=O)N[C@@H](CO)C(=O)N1CCC[C@H]1C(N)=O)[C@@H](C)O)[C@@H](C)O)[C@@H](C)O` [compound 92, [N-terminal(C20 diacid-gGlu), des1, 9T, 21S, 23Y, 30S, 31G]mimylin] ({C20 diacid-γGlu}-ASELSTATLGRLSAELHELSTYPRTETGSGSP-NH2): the Solubility entry reads like this: (pH 3.0) “≧200 μM”; (pH 4.0) “≧200 μM”; (pH 6.0) “≧200 μM”; (pH 6.5) “≧200 μM”; (pH 7.0) “≧200 μM”; (pH 7.5) “≧200 μM”. Also, the Solubility result (pH 8.0) is given as “≧200 μM”. Where the note is “pH 5.0”, this compound displayed a solubility at 18 h of 169 µM (≈ 638 µg/mL).

In the case of `CC(C)C[C@H](NC(=O)[C@H](C)NC(=O)[C@H](C)NC(=O)[C@@H](NC(=O)[C@H](CO)NC(=O)[C@H](CC(C)C)NC(=O)[C@H](CCC(=O)O)NC(=O)[C@H](CO)NC(=O)[C@H](C)NC(=O)COCCOCCNC(=O)COCCOCCNC(=O)CC[C@H](NC(=O)CCCCCCCCCCCCCCCCCCC(=O)O)C(=O)O)[C@@H](C)O)C(=O)NCC(=O)N[C@@H](CCCNC(=N)N)C(=O)N[C@@H](CC(C)C)C(=O)N[C@@H](CO)C(=O)N[C@@H](C)C(=O)N[C@@H](CCC(=O)O)C(=O)N[C@@H](CC(C)C)C(=O)N[C@@H](Cc1cnc[nH]1)C(=O)N[C@@H](CCC(=O)O)C(=O)N[C@@H](CC(C)C)C(=O)N[C@@H](C)C(=O)N[C@H](C(=O)N[C@@H](CC(C)C)C(=O)N1CCC[C@H]1C(=O)N[C@@H](CCCNC(=N)N)C(=O)N[C@H](C(=O)N[C@@H](CCC(=O)O)C(=O)N[C@H](C(=O)NCC(=O)N[C@@H](CO)C(=O)NCC(=O)N[C@@H](CO)C(=O)N1CCC[C@H]1C(N)=O)[C@@H](C)O)[C@@H](C)O)[C@@H](C)O` [compound 42, [N-terminal(C20 diacid-gGlu-2xOEG), des1, 30S, 31G]mimylin] ({C20 diacid-γGlu-AEEA-AEEA}-ASELSTAALGRLSAELHELATLPRTETGSGSP-NH2), the Solubility result is, setting by setting: (pH 3.0) “≧200 μM”; (pH 4.0) “≧200 μM”; (pH 5.0) “≧200 μM”; (pH 6.0) “≧200 μM”; (pH 6.5) “≧200 μM”; (pH 7.0) “≧200 μM”. The Solubility result runs as follows: (pH 7.5) “≧200 μM”; (pH 8.0) “≧200 μM”.

Take `CC(C)C[C@H](NC(=O)[C@H](CO)NC(=O)CNC(=O)[C@H](CO)NC(=O)CNC(=O)[C@@H](NC(=O)[C@H](CCC(=O)O)NC(=O)[C@@H](NC(=O)[C@H](CCCNC(=N)N)NC(=O)[C@@H]1CCCN1C(=O)[C@H](CC(C)C)NC(=O)[C@@H](NC(=O)[C@H](C)NC(=O)[C@H](CC(C)C)NC(=O)[C@H](CCC(=O)O)NC(=O)[C@H](Cc1cnc[nH]1)NC(=O)[C@H](CC(C)C)NC(=O)[C@H](CCC(=O)O)NC(=O)[C@H](C)NC(=O)[C@H](CO)NC(=O)[C@H](CC(C)C)NC(=O)[C@H](CCCNC(=N)N)NC(=O)CNC(=O)[C@H](CC(C)C)NC(=O)[C@H](C)NC(=O)[C@H](C)NC(=O)[C@@H](NC(=O)[C@H](CO)NC(=O)[C@H](CC(C)C)NC(=O)[C@H](CCC(=O)O)NC(=O)[C@H](CO)NC(=O)[C@H](C)NC(=O)CC[C@H](NC(=O)CCCCCCCCCCCCCCCCCCC(=O)O)C(=O)O)[C@@H](C)O)[C@@H](C)O)[C@@H](C)O)[C@@H](C)O)C(N)=O` [compound 62, [N-terminal(C20 diacid-gGlu), des1, 30S, 31G, 33L]mimylin] ({C20 diacid-γGlu}-ASELSTAALGRLSAELHELATLPRTETGSGSL-NH2): the Solubility result (pH 3.0) was “≧200 μM”; the Solubility result (pH 4.0) is reported as “≧200 μM”; the Solubility result (pH 5.0) is “≧200 μM”; the Solubility result (pH 6.0) was “≧200 μM”; the Solubility entry (pH 6.5) is “≧200 μM”; the Solubility entry (pH 7.0) is “≧200 μM”. Also, the Solubility result was “≧200 μM” (pH 7.5) and “≧200 μM” (pH 8.0).
